Measurements reported in patent EP0183129A1, “Quinolonecarboxylic acid derivatives” (KYORIN PHARMACEUTICAL CO., LTD., priority 1984, dated 1986).
Values after ≈ are worked out from the molar mass of the structure shown. Structures can show the parent of a compound that is named as a salt. Where two headings read alike, the source gives them in different places.

Legend:
S. aureus Smith = test: In vivo antibacterial activity against systemic infection in mice; set-up: species or system mice (ICR-S); conditions: Staphylococcus aureus, po, mice (ICR-S), an hour after intraperitoneal infection
Description: (§1) Experiment-2 In vivo antibacterial activity against systemic infection in mice (ICR-S)
(§2) The infections were produced by intraperitoneal injection of a suspension of the bacterial culture corresponding to the germ studied. The products were administered orally at an hour after the infection.

S. pneumoniae S-4288 = test: as above; set-up: species or system mice (ICR-S); conditions: Streptococcus pneumoniae, S4288; mice (ICR-S); oral, an hour after intraperitoneal infection; challenge dose 7.5 x 10^4 ~ 4.8 x 10^6 cfu/mouse; read-out: ED50 S. pneumoniae S-4288
Description: as §1, §2

[1] = Absorption and distribution: concentration in blood and organs after oral administration, bioassay by cup method; assay type: in vivo; conditions: rat, rats, fasted, 10 mg/kg oral, Mean ± S.D. (n=5); for concentration at 0.5 h: 1/2 hr after administration; for concentration at 1 h: 1 hr after administration; for concentration at 2 h: 2 hr after administration; for concentration at 4 h: 4 hr after administration; for concentration at 6 h: 6 hr after administration; for concentration at 8 h: 8 hr after administration
S. pneumoniae 28 = test: In vitro antibacterial activity, MIC (clinical isolates); assay type: cell-based; conditions: Streptococcus pneumoniae, 10^6 cells/ml, clinical isolate
[2] = Urinary and bile excretion after oral administration, bioassay by cup method; assay type: in vivo; conditions: rat, fasted rats, 10 mg/kg oral, Mean ± S.D. (n=5)
[3] = challenge dose 6.0 x 10^5 cfu/mouse, read-out: ED50 S. aureus Smith
[4] = kidney, read-out: Concentration in organs: Kidney
[5] = liver, read-out: Concentration in organs: Liver
[6] = lung, read-out: Concentration in organs: Lung
[7] = serum, read-out: Concentration in organs: Serum
[8] = bile 0 ~ 3 hr, read-out: Concentration, bile
[9] = bile 0 ~ 3 hr, read-out: Recovery, bile
[10] = bile 0 ~ 6 hr, read-out: Recovery, bile
[11] = bile 0 ~ 24 hr, read-out: Recovery, bile
[12] = bile 3 ~ 6 hr, read-out: Concentration, bile
[13] = bile 6 ~ 24 hr, read-out: Concentration, bile
[14] = urine 0 ~ 3 hr, read-out: Concentration, urine
[15] = urine 0 ~ 3 hr, read-out: Recovery, urine
[16] = urine 0 ~ 6 hr, read-out: Recovery, urine
[17] = urine 0 ~ 24 hr, read-out: Recovery, urine
[18] = urine 3 ~ 6 hr, read-out: Concentration, urine
[19] = urine 6 ~ 24 hr, read-out: Concentration, urine

With `CCNCC1CCN(c2c(F)cc3c(=O)c(C(=O)O)cn(C4CC4)c3c2F)C1` (stereo not drawn) [Example 2, l-Cyclopropyl-7-(3-ethylaminomethyl-l-pyrrolidinyl)-6,8-difluoro-l,4-dihydro-4-oxo-3-quinolinecarboxylic acid hydrochloride] the ED50 (S. aureus Smith; challenge dose 5.5 x 10^5 cfu/mouse, n=5, read-out: ED50 against S. aureus Smith) was 0.97 mg/kg, the ED50 (S. aureus Smith; [3]) was 0.9 mg/kg and the ED50 (S. pneumoniae S-4288) was 4.6 mg/kg. The concentration at 0.5 h [1, 4] was 8500 ± 310 ng/g, the concentration at 1 h [1, 4] was 6720 ± 540 ng/g and the concentration at 2 h [1, 4] was 4660 ± 300 ng/g. It also gave a concentration at 4 h [1, 4] of 2620 ± 590 ng/g, a concentration at 6 h [1, 4] of 1860 ± 110 ng/g and a concentration at 8 h [1, 4] of 980 ± 220 ng/g. The concentration at 0.5 h [1, 5] was 9480 ± 440 ng/g, the concentration at 1 h [1, 5] was 6240 ± 530 ng/g and the concentration at 2 h [1, 5] was 4320 ± 430 ng/g. The concentration at 4 h [1, 5] was 2360 ± 480 ng/g, the concentration at 6 h [1, 5] was 1620 ± 290 ng/g and the concentration at 8 h [1, 5] was 820 ± 190 ng/g. The concentration at 0.5 h [1, 6] was 3840 ± 420 ng/g, the concentration at 1 h [1, 6] was 2940 ± 220 ng/g and the concentration at 2 h [1, 6] was 1920 ± 330 ng/g. It also gave a concentration at 4 h [1, 6] of 1120 ± 310 ng/g, a concentration at 6 h [1, 6] of 780 ± 190 ng/g and a concentration at 8 h [1, 6] of 380 ± 80 ng/g. For the same compound, the concentration at 0.5 h [1, 7] was 1470 ± 190 ng/mL, the concentration at 1 h [1, 7] was 1300 ± 200 ng/mL and the concentration at 2 h [1, 7] was 900 ± 190 ng/mL. The concentration at 4 h [1, 7] was 420 ± 150 ng/mL, the concentration at 6 h [1, 7] was 260 ± 90 ng/mL and the concentration at 8 h [1, 7] was 120 ± 40 ng/mL. The MIC (S. pneumoniae 28) was 0.05 µg/mL, the concentration at 3 h [2, 8] was 17100 ± 10000 ng/mL and the dose excreted at 3 h [2, 9] was 2.4 ± 1.6%. The dose excreted at 6 h [2, 10] was 4.3 ± 2.1%, the dose excreted at 24 h [2, 11] was 9.7 ± 3.1% and the concentration at 6 h [2, 12] was 16100 ± 6200 ng/mL. The concentration at 24 h [2, 13] was 10100 ± 2300 ng/mL, the concentration at 3 h [2, 14] was 44200 ± 27900 ng/mL and the dose excreted at 3 h [2, 15] was 3.5 ± 2%. The dose excreted at 6 h [2, 16] was 6.7 ± 4.3%, the dose excreted at 24 h [2, 17] was 13.5 ± 4.6% and the concentration at 6 h [2, 18] was 115000 ± 61000 ng/mL. It also gave a concentration at 24 h [2, 19] of 22100 ± 9800 ng/mL.
`CNCC1CCN(c2c(F)cc3c(=O)c(C(=O)O)cn(C4CC4)c3c2Cl)C1` (stereo not drawn) [Example 12, 8-Chloro-l-cyclopropyl-6-fluoro-1,4-dihydro-7-(3-methylaminomethyl-1-pyrrolidinyl)-4-oxo-3-quinolinecarboxylic acid hydrochloride] showed an ED50 (S. aureus Smith; [3]) of 0.5 mg/kg, an ED50 (S. pneumoniae S-4288) of 6.5 mg/kg and an MIC (S. pneumoniae 28) of 0.05 µg/mL.
With `CCNCC1CCN(c2c(F)cc3c(=O)c(C(=O)O)cn(CC)c3c2F)C1` (centres unmarked) [Ref.1, 1-Ethyl-7-(3-ethylaminomethyl-1-pyrrolidinyl)-6,8-difluoro-1,4-dihydro-4-oxo-3-quinolinecarboxylic acid, reference compound] the ED50 (S. aureus Smith; [3]) was 5 mg/kg and the ED50 (S. pneumoniae S-4288) was 62.2 mg/kg.
With `CCNCC1CCN(c2c(F)cc3c(=O)c(C(=O)O)cn(C4CC4)c3c2Cl)C1` (stereo not drawn) [Example 13, 8-Chloro-l-cyclorpropyl-6-fluoro-1,4-dihydro-7-(3-ethylaminomethyl-l-pyrrolidinyl)-4-oxo-3-quinolinecarboxylic acid] the ED50 (S. aureus Smith; [3]) was 0.6 mg/kg, the ED50 (S. pneumoniae S-4288) was 2 mg/kg and the concentration at 0.5 h [1, 4] was 5630 ± 640 ng/g. It also gave a concentration at 1 h [1, 4] of 4700 ± 600 ng/g, a concentration at 2 h [1, 4] of 2810 ± 250 ng/g and a concentration at 4 h [1, 4] of 1470 ± 250 ng/g. It also gave a concentration at 6 h [1, 4] of 840 ± 90 ng/g, a concentration at 8 h [1, 4] of 890 ± 400 ng/g and a concentration at 0.5 h [1, 5] of 7780 ± 910 ng/g. The concentration at 1 h [1, 5] was 5710 ± 630 ng/g, the concentration at 2 h [1, 5] was 3140 ± 360 ng/g and the concentration at 4 h [1, 5] was 1340 ± 120 ng/g. The concentration at 6 h [1, 5] was 860 ± 150 ng/g, the concentration at 8 h [1, 5] was 1130 ± 520 ng/g and the concentration at 0.5 h [1, 6] was 3170 ± 710 ng/g. The concentration at 1 h [1, 6] was 2660 ± 420 ng/g, the concentration at 2 h [1, 6] was 1540 ± 210 ng/g and the concentration at 4 h [1, 6] was 700 ± 80 ng/g. It also gave a concentration at 6 h [1, 6] of 420 ± 50 ng/g, a concentration at 8 h [1, 6] of 450 ± 150 ng/g and a concentration at 0.5 h [1, 7] of 1720 ± 370 ng/mL. The concentration at 1 h [1, 7] was 1120 ± 300 ng/mL, the concentration at 2 h [1, 7] was 570 ± 80 ng/mL and the concentration at 4 h [1, 7] was 230 ± 40 ng/mL. It also gave a concentration at 6 h [1, 7] of 100 ± 10 ng/mL, a concentration at 8 h [1, 7] of 140 ± 80 ng/mL and an MIC (S. pneumoniae 28) of 0.05 µg/mL (≈ 0.123 µM). For the same compound, the concentration at 3 h [2, 8] was 36400 ± 9900 ng/mL, the dose excreted at 3 h [2, 9] was 4.9 ± 1.5% and the dose excreted at 6 h [2, 10] was 6.9 ± 1.4%. For the same compound, the dose excreted at 24 h [2, 11] was 12.9 ± 4.9%, the concentration at 6 h [2, 12] was 19700 ± 8000 ng/mL and the concentration at 24 h [2, 13] was 11300 ± 8300 ng/mL. It also gave a concentration at 3 h [2, 14] of 36100 ± 9200 ng/mL, a dose excreted at 3 h [2, 15] of 2.7 ± 2.1% and a dose excreted at 6 h [2, 16] of 4.8 ± 1.8%. It also gave a dose excreted at 24 h [2, 17] of 7.4 ± 1.5%, a concentration at 6 h [2, 18] of 39400 ± 13300 ng/mL and a concentration at 24 h [2, 19] of 7600 ± 3600 ng/mL.
`CCn1cc(C(=O)O)c(=O)c2cc(F)c(N3CCNCC3)cc21` [NFLX, Norfloxacin, reference compound] gave an MIC (S. pneumoniae 28) of 6.25 µg/mL (≈ 19.6 µM).
`NCC1CCN(c2c(F)cc3c(=O)c(C(=O)O)cn(C4CC4)c3c2F)C1` (stereo not drawn) [Example 1, 7-(3-Aminomethyl-l-pyrrolidinyl)-l-cyclopropyl-6,8-difluoro-1,4-dihydro-4-oxo-3-quinolinecarboxylic acid hydrochloride] showed an ED50 (S. aureus Smith; challenge dose 7 x 10^5 cfu/mouse, n=5, read-out: ED50 against S. aureus Smith) of 0.9 mg/kg and an MIC (S. pneumoniae 28) of 0.05 µg/mL.
In the case of `CNCC1CCN(c2c(F)cc3c(=O)c(C(=O)O)cn(C4CC4)c3c2F)C1` (stereo not drawn) [Example 8, 1-Cyclopropyl-6,8-difluoro-1,4-dihydro-7-(3-methylaminomethyl-l-pyrrolidinyl)-4-oxo-3-quinolinecarboxylic acid hydrochloride], the ED50 (S. aureus Smith; [3]) is reported as 1.1 mg/kg, the ED50 (S. pneumoniae S-4288) is reported as 16.1 mg/kg and the MIC (S. pneumoniae 28) is reported as 0.05 µg/mL.
Work on `NCC1CCN(c2c(F)cc3c(=O)c(C(=O)O)cn(C4CC4)c3c2Cl)C1` (stereo not drawn) [Example 14, 8-Chloro-l-cyclopropyl-6-fluoro-l,4-dihydro-7-(3-aminomethyl-l-pyrrolidinyl)-4-oxo-3-quinolinecarboxylic acid hydrochloride] yielded an ED50 (S. pneumoniae S-4288) of 10 mg/kg and an MIC (S. pneumoniae 28) of 0.05 µg/mL.
